Test results taken from US20260201008A1, “SECRETIN-DERIVED GLP1R SELECTIVE AGONISTS” (GUBRA A/S, priority 2023, published 2026).
Like-named read-outs stand apart in the source and are kept apart here. Numbered stars: 1 amine (or outer) side, 2 acyl side, 3 side chain; on linkers, the order of the positions; unused ones are H or OH. Square brackets hold non-standard residues; d marks the D form. Side chains are listed from the residue outwards. Peptide text beside a SMILES is read from it. * marks the point of attachment. C20 diacid = O=C(O)CCCCCCCCCCCCCCCCCCC(=O)*; γGlu = O=C(O)[C@H](CCC(=O)[*:2])N[*:1]; AEEA = NCCOCCOCC(=O)O; Aib = CC(C)(N)C(=O)O

Key:
[1] = Turbidity of crude library peptides (absorbance at 600 nm); assay type: physicochemical; conditions: Physical stability of peptides
Procedure, shortened: (§1)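 Turbidity is the absorbance at 600 nm, taken before heating. Fibril signal is the mean ThT emission at 480 nm (450 nm excitation), read every 10 min over 72 h at 40° C with 700 rpm shaking between reads. Peptides at 267 μM, pH 4.0 acetate or pH 7.0 phosphate buffer (50 mM), 4 μM ThT final.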

[2] = Fibril formation of crude library peptides (Thioflavin T); assay type: physicochemical; set-up: key: average ThT fluorescence emission at 480 nm (ex 450 nm), raw units; conditions: Physical stability of peptides
Procedure, shortened: as §1

GLP1R = GLP1R (Homo sapiens, UniProt P43220); experiment: hGLP1R potency, cAMP accumulation in CHO-K1 cells stably overexpressing hGLP1R; assay type: cell-based; set-up: host or cells: CHO-K1; conditions: for EC50: cAMP accumulation; for SCTR EC50/GLP1R EC50 ratio: cAMP accumulation in CHO-K1 cells; for Selectivity: SCTR EC50/GLP1R EC50 ratio
GLP1R, sequence (P43220 24-463): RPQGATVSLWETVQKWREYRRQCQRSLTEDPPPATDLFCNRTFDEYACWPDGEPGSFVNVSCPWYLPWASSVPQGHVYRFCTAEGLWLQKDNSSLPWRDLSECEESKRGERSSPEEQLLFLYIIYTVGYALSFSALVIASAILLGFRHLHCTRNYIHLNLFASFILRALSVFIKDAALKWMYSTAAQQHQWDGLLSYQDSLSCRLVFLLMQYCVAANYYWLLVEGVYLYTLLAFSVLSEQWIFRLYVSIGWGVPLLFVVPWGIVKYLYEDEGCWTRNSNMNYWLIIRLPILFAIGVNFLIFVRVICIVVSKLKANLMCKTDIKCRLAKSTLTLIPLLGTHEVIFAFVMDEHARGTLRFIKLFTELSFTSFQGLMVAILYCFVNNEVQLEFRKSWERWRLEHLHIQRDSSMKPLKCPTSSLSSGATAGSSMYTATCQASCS
Procedure, shortened: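 2000 cells/well, DPBS + 0.05% casein + 0.5 mM IBMX; 30 min RT stimulation; HTRF cAMP detection after 1 h. Purified: 3-fold ×11, n=2; crude: 10-fold ×5, n=1. EC50 by variable-slope fit.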

SCTR = SCTR (Homo sapiens, UniProt P47872); experiment: hSCTR potency, cAMP accumulation in CHO-K1 cells stably overexpressing hSCTR; assay type: cell-based; set-up: alternatively Euroscreen ES-712-AF; FAST-0161L; host or cells: CHO-K1; conditions: cAMP accumulation
SCTR, sequence (P47872 23-440): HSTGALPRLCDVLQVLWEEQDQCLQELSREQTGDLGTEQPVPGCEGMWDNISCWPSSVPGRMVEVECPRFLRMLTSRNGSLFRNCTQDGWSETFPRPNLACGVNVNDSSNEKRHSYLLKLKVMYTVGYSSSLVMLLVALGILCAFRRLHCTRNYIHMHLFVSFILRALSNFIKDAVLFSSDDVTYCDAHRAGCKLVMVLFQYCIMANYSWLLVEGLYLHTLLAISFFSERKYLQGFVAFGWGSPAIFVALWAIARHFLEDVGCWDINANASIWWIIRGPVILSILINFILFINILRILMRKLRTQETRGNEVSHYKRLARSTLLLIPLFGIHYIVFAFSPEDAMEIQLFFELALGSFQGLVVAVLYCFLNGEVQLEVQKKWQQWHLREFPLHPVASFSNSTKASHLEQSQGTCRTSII
Procedure, shortened: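 Thawed CHO-K1 cells carrying stable hSCTR are plated into casein/IBMX buffer (0.05%, 0.5 mM), dosed immediately for 30 min at room temperature, then cAMP is detected by TR-FRET. Purified peptides run as 11 three-fold dilutions in duplicate, and curves are fitted with variable slope.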

[3] = CHO-K1 cells overexpressing hGLP1R, read-out: pEC50 hGLPR1 (converted)
[4] = CHO-K1 cells overexpressing hSCTR, read-out: pEC50 hSCTR (converted)
[5] = CHO-K1 cells overexpressing hGLP1R, read-out: hGLP1R pEC50 (converted)
[6] = selectivity for hGLP1R over hSCTR
[7] = CHO-K1 cells overexpressing hSCTR, read-out: hSCTR pEC50 (converted)

Row | Turbidity (pH 7) [1] | Fibril formation [2] | EC50 (GLP1R; CHO-K1 cells stably overexpressing hGLP1R, read-out: hGLP1R potency (pEC50) (converted)) | SCTR EC50/GLP1R EC50 ratio (GLP1R; selectivity ratio, hSCTR vs hGLP1R) | EC50 (SCTR; CHO-K1 cells stably overexpressing hSCTR, read-out: hSCTR potency (pEC50) (converted)) | Selectivity (GLP1R) | EC50 (GLP1R; [3]) | EC50 (SCTR; [4]) | EC50 (GLP1R; [5]) | SCTR EC50/GLP1R EC50 ratio (GLP1R; [6]) | EC50 (SCTR; [7]) | SMILES
1 | 0.30 | 30208 | 0.0126 nM | 940 | 12.6 nM |  |  |  |  |  |  | CC[C@H](C)[C@H](NC(=O)[C@H](Cc1ccccc1)NC(=O)[C@H](CCCNC(=N)N)NC(=O)[C@H](CCC(N)=O)NC(=O)[C@H](CC(C)C)NC(=O)[C@H](C)NC(=O)[C@H](C)NC(=O)CNC(=O)[C@H](CCC(=O)O)NC(=O)[C@H](CC(C)C)NC(=O)[C@H](CC(C)C)NC(=O)[C@H](Cc1ccc(O)cc1)NC(=O)[C@H](CO)NC(=O)[C@H](Cc1ccc(O)cc1)NC(=O)[C@H](CC(=O)O)NC(=O)[C@H](CO)NC(=O)[C@@H](NC(=O)[C@H](Cc1ccccc1)NC(=O)[C@@H](NC(=O)CNC(=O)[C@H](CCC(=O)O)NC(=O)C(C)(C)NC(=O)[C@@H](N)Cc1c[nH]cn1)[C@@H](C)O)[C@@H](C)O)C(=O)N[C@@H](CCC(N)=O)C(=O)N[C@@H](Cc1c[nH]c2ccccc12)C(=O)N[C@@H](CC(C)C)C(=O)N[C@H](C(N)=O)C(C)C [compound 201] (H-H[Aib]EGTFTSDYSYLLEGAALQRFIQWLV-NH2)
2 | 0.08 | 10417 |  |  |  | 144477 | 0.0398 nM | 6310 nM |  |  |  | CC(C)C[C@H](NC(=O)[C@H](Cc1ccccc1)NC(=O)[C@H](CCCNC(=N)N)NC(=O)[C@H](CCC(N)=O)NC(=O)[C@H](CCC(=O)O)NC(=O)[C@H](C)NC(=O)[C@H](C)NC(=O)[C@H](Cc1ccccc1)NC(=O)[C@H](CCC(=O)O)NC(=O)[C@H](CCCCNC(=O)COCCOCCNC(=O)COCCOCCNC(=O)CC[C@H](NC(=O)CCCCCCCCCCCCCCCCCCC(=O)O)C(=O)O)NC(=O)[C@H](CC(C)C)NC(=O)[C@H](CCC(=O)O)NC(=O)[C@H](CO)NC(=O)[C@@H](NC(=O)[C@H](CC(=O)O)NC(=O)[C@H](CO)NC(=O)[C@@H](NC(=O)[C@H](Cc1ccccc1)NC(=O)[C@@H](NC(=O)CNC(=O)[C@H](CCC(=O)O)NC(=O)C(C)(C)NC(=O)[C@@H](N)Cc1c[nH]cn1)[C@@H](C)O)[C@@H](C)O)C(C)C)C(=O)N[C@@H](CCC(=O)O)C(=O)N[C@@H](Cc1c[nH]cn1)C(=O)N[C@@H](CC(C)C)C(=O)N[C@H](C(N)=O)C(C)C [compound 31] (H-H[Aib]EGTFTSDVSELK([AEEA-AEEA-γGlu-C20 diacid])EFAAEQRFLEHLV-NH2)
3 | 0.08 | 2891 |  |  |  |  |  |  | 0.00794 nM | 8838 | 63.1 nM | CC(C)C[C@H](NC(=O)[C@H](Cc1ccccc1)NC(=O)[C@H](CCCNC(=N)N)NC(=O)[C@H](CCC(N)=O)NC(=O)[C@H](CC(C)C)NC(=O)C(C)(C)NC(=O)[C@H](C)NC(=O)[C@H](CCC(=O)O)NC(=O)[C@H](CCC(=O)O)NC(=O)[C@H](CCCCNC(=O)COCCOCCNC(=O)COCCOCCNC(=O)CC[C@H](NC(=O)CCCCCCCCCCCCCCCCCCC(=O)O)C(=O)O)NC(=O)[C@H](CC(C)C)NC(=O)[C@H](Cc1c[nH]cn1)NC(=O)[C@H](CO)NC(=O)[C@@H](NC(=O)[C@H](CC(=O)O)NC(=O)[C@H](CO)NC(=O)[C@@H](NC(=O)[C@H](Cc1ccccc1)NC(=O)[C@@H](NC(=O)CNC(=O)[C@H](CCC(=O)O)NC(=O)C(C)(C)NC(=O)[C@@H](N)Cc1c[nH]cn1)[C@@H](C)O)[C@@H](C)O)C(C)C)C(=O)N[C@@H](CCC(=O)O)C(=O)N[C@@H](Cc1c[nH]cn1)C(=O)N[C@@H](CC(C)C)C(=O)N[C@H](C(N)=O)C(C)C [compound 145] (H-H[Aib]EGTFTSDVSHLK([AEEA-AEEA-γGlu-C20 diacid])EEA[Aib]LQRFLEHLV-NH2)
4 | 0.42 | 202498 |  |  |  |  |  |  | 0.0501 nM | 1422 | 79.4 nM | CC[C@H](C)[C@H](NC(=O)[C@H](Cc1ccccc1)NC(=O)[C@H](CCCNC(=N)N)NC(=O)[C@H](CCC(N)=O)NC(=O)[C@H](CC(C)C)NC(=O)[C@H](C)NC(=O)[C@H](C)NC(=O)CNC(=O)[C@H](CCC(=O)O)NC(=O)[C@H](CC(C)C)NC(=O)[C@H](CC(C)C)NC(=O)[C@@H](NC(=O)[C@H](CO)NC(=O)[C@@H](NC(=O)[C@H](CC(=O)O)NC(=O)[C@H](CO)NC(=O)[C@@H](NC(=O)[C@H](Cc1ccccc1)NC(=O)[C@@H](NC(=O)CNC(=O)[C@H](CCC(=O)O)NC(=O)C(C)(C)NC(=O)[C@@H](N)Cc1c[nH]cn1)[C@@H](C)O)[C@@H](C)O)[C@@H](C)CC)C(C)C)C(=O)N[C@@H](CCC(N)=O)C(=O)N[C@@H](Cc1c[nH]c2ccccc12)C(=O)N[C@@H](CC(C)C)C(=O)N[C@H](C(N)=O)C(C)C [compound 116] (H-H[Aib]EGTFTSDISVLLEGAALQRFIQWLV-NH2)
5 | 0.08 | 11494 |  |  |  | 4325 | 0.0398 nM | 158 nM |  |  |  | CC(C)C[C@H](NC(=O)[C@H](Cc1ccccc1)NC(=O)[C@H](CCCNC(=N)N)NC(=O)[C@H](CCC(N)=O)NC(=O)C(C)(C)NC(=O)[C@H](C)NC(=O)[C@H](C)NC(=O)[C@H](CCC(=O)O)NC(=O)[C@H](CCC(=O)O)NC(=O)[C@H](CCCCNC(=O)COCCOCCNC(=O)COCCOCCNC(=O)CC[C@H](NC(=O)CCCCCCCCCCCCCCCCCCC(=O)O)C(=O)O)NC(=O)[C@H](CC(C)C)NC(=O)[C@H](CCCNC(=N)N)NC(=O)[C@H](CO)NC(=O)[C@@H](NC(=O)[C@H](CC(=O)O)NC(=O)[C@H](CO)NC(=O)[C@@H](NC(=O)[C@H](Cc1ccccc1)NC(=O)[C@@H](NC(=O)CNC(=O)[C@H](CCC(=O)O)NC(=O)C(C)(C)NC(=O)[C@@H](N)Cc1c[nH]cn1)[C@@H](C)O)[C@@H](C)O)C(C)C)C(=O)N[C@@H](CCC(=O)O)C(=O)N[C@@H](Cc1c[nH]cn1)C(=O)N[C@@H](CC(C)C)C(=O)N[C@H](C(N)=O)C(C)C [compound 1] (H-H[Aib]EGTFTSDVSRLK([AEEA-AEEA-γGlu-C20 diacid])EEAA[Aib]QRFLEHLV-NH2)
6 | 0.08 | 3646 |  |  |  |  |  |  | 0.00794 nM | 1181272 | 10000 nM | CC(C)C[C@H](NC(=O)[C@H](Cc1ccccc1)NC(=O)[C@H](CCCNC(=N)N)NC(=O)[C@H](CCC(N)=O)NC(=O)[C@H](CC(C)C)NC(=O)C(C)(C)NC(=O)[C@H](C)NC(=O)[C@H](CCC(=O)O)NC(=O)[C@H](CCC(=O)O)NC(=O)[C@H](CCCCNC(=O)COCCOCCNC(=O)COCCOCCNC(=O)CC[C@H](NC(=O)CCCCCCCCCCCCCCCCCCC(=O)O)C(=O)O)NC(=O)[C@H](CC(C)C)NC(=O)[C@H](Cc1ccc(O)cc1)NC(=O)[C@H](CO)NC(=O)C(C)(C)NC(=O)[C@H](CC(=O)O)NC(=O)[C@H](CO)NC(=O)[C@@H](NC(=O)[C@H](Cc1ccccc1)NC(=O)[C@@H](NC(=O)CNC(=O)[C@H](CCC(=O)O)NC(=O)C(C)(C)NC(=O)[C@@H](N)Cc1c[nH]cn1)[C@@H](C)O)[C@@H](C)O)C(=O)N[C@@H](CCC(=O)O)C(=O)N[C@@H](Cc1c[nH]cn1)C(=O)N[C@@H](CC(C)C)C(=O)N[C@H](C(N)=O)C(C)C [compound 103] (H-H[Aib]EGTFTSD[Aib]SYLK([AEEA-AEEA-γGlu-C20 diacid])EEA[Aib]LQRFLEHLV-NH2)
